Experimental data as given in patent US9114117B2, “Compounds effective against cancer” (Ingo Schmidt-Wolf, priority 2009, dated 2015).

Key:
[1] = cited from earlier work
[2] = Relative viability of PBMCs by FACS analysis; type: cell-based; settings: culture = 100%
From the text: (§1) The peripheral blood lymphocytes (PBLs) out of the PBMCs were selected for the FACS analysis (FIG. 5). A toxicity of the cells induced a shift from viable cells to apoptotic cells (FIG. 6, 7). If the drug or its concentration is very toxic, the cells appear addition-ally in a higher extent necrotic.
(§2) DMSO, the solvent of EA and cic, was given to the PBMCs in a ratio of 1:100, as control. The values are related to the culture-control and expressed as mean±standard error of the mean (SEM) taken from 5 separate measurements. In FIG. 5 (A) samples were measured after 24, 48 and 72 h. After 0 h, the time of execution, the relative viability was defined as 100° A) for all samples. In FIG. 5 (B) the relative viability values for the samples measured after 24, 48 and 72 h.

PBMCs = experiment: Relative apoptosis of PBMCs by FACS analysis; type: cell-based; settings: culture = 0%
From the text: as §1
as §2, with “FIG. 6” for “FIG. 5”, “relative apoptosis” for “relative viability”, “as 0%” for “as 100° A)”

cell line LAM-53 [3] = experiment: Relative viability of cell line LAM-53 by FACS analysis; type: cell-based; settings: culture = 100%; for viability at 30 µM: 30 μM EA
From the text: as §1
as §2, with “the cell line LAM-53” for “the PBMCs”, “FIG. 7” for “FIG. 5”, “as 100%” for “as 100° A)”

cell line LAM-53 [4] = experiment: Relative apoptosis of cell line LAM-53 by FACS analysis; type: cell-based; settings: culture = 0%
From the text: as §1
as §2, with “the cell line LAM-53” for “the PBMCs”, “FIG. 8” for “FIG. 5”, “relative apoptosis” for “relative viability”, “as 0%” for “as 100° A)”

cell line DHL-4 [5] = experiment: Relative viability of cell line DHL-4 by FACS analysis; type: cell-based; settings: culture = 100%; for viability at 30 µM: 30 μM EA; for viability at 10 µM: 10 μM cic
From the text: as §1
as §2, with “the cell line DHL-4” for “the PBMCs”, “FIG. 9” for “FIG. 5”, “as 100%” for “as 100° A)”

cell line DHL-4 [6] = experiment: Relative apoptosis of cell line DHL-4 by FACS analysis; type: cell-based; settings: culture = 0%
From the text: as §1
as §2, with “the cell line DHL-4” for “the PBMCs”, “FIG. 10” for “FIG. 5”, “relative apoptosis” for “relative viability”, “as 0%” for “as 100° A)”

cell line OPM-2 [7] = experiment: Relative viability of myeloma cell line OPM-2 by FACS analysis; type: cell-based; settings: Homo sapiens, culture = 100%; for viability at 30 µM: 30 μM EA; for viability at 10 µM: 10 μM cic
From the text: as §1
as §2, with “the cell line OPM-2” for “the PBMCs”, “FIG. 11” for “FIG. 5”, “as 100%” for “as 100° A)”

cell line OPM-2 [8] = experiment: Relative apoptosis of myeloma cell line OPM-2 by FACS analysis; type: cell-based; settings: culture = 0%
From the text: as §1
as §2, with “the cell line OPM-2” for “the PBMCs”, “FIG. 12” for “FIG. 5”, “relative apoptosis” for “relative viability”, “as 0%” for “as 100° A)”

cell line Raji [9] = experiment: Relative viability of cell line Raji by FACS analysis; type: cell-based; settings: Homo sapiens, culture = 100%; for viability at 30 µM: 30 μM EA; for viability at 10 µM: 10 μM cic
From the text: as §1
as §2, with “the cell line Raji” for “the PBMCs”, “FIG. 13” for “FIG. 5”, “as 100%” for “as 100° A)”

cell line Raji [10] = experiment: Relative apoptosis of cell line Raji by FACS analysis; type: cell-based; settings: culture = 0%
From the text: as §1
as §2, with “the cell line Raji” for “the PBMCs”, “FIG. 14” for “FIG. 5”, “relative apoptosis” for “relative viability”, “as 0%” for “as 100° A)”

[11] = per day; cited from earlier work

Cc1cc(C2CCCCC2)n(O)c(=O)c1 [Ciclopirox, 6-cyclohexyl-1-hydroxy-4-methyl-1,2-dihydropyridin-2-one]
solubility in methanol ([1]; methanol): soluble

C=C(CC)C(=O)c1ccc(OCC(=O)O)c(Cl)c1Cl [EA, 2-[2,3-dichloro-4-(2-methylidenebutanoyl)phenoxy]acetic acid]
viability at 24 h, 30 μM ([2]; 30 μM EA, 24 h): 98.9% | viability at 48 h, 30 μM ([2]; 30 μM EA, 48 h): 94.9% | viability at 72 h, 30 μM ([2]; 30 μM EA, 72 h): 89.5% | relative apoptosis (PBMCs; 30 μM EA, 24 h): 1.3% | relative apoptosis (PBMCs; 30 μM EA, 48 h): 3.9% | relative apoptosis (PBMCs; 30 μM EA, 72 h): 7.6% | viability at 30 µM (cell line LAM-53 [3]; 24 h): 96.7% | viability at 30 µM (cell line LAM-53 [3]; 48 h): 96.2% | viability at 30 µM (cell line LAM-53 [3]; 72 h): 91% | relative apoptosis (cell line LAM-53 [4]; 30 μM EA, 24 h): 0.7% | relative apoptosis (cell line LAM-53 [4]; 30 μM EA, 48 h): 1.5% | relative apoptosis (cell line LAM-53 [4]; 30 μM EA, 72 h): 1.8% | viability at 30 µM (cell line DHL-4 [5]; 24 h): 91.7% | viability at 30 µM (cell line DHL-4 [5]; 48 h): 96% | viability at 30 µM (cell line DHL-4 [5]; 72 h): 97.6% | relative apoptosis (cell line DHL-4 [6]; 30 μM EA, 24 h): 6.7% | relative apoptosis (cell line DHL-4 [6]; 30 μM EA, 48 h): 2.0% | relative apoptosis (cell line DHL-4 [6]; 30 μM EA, 72 h): 1.2% | viability at 30 µM (cell line OPM-2 [7]; 24 h): 96.4% | viability at 30 µM (cell line OPM-2 [7]; 48 h): 84.2% | viability at 30 µM (cell line OPM-2 [7]; 72 h): 58% | relative apoptosis (cell line OPM-2 [8]; 30 μM EA, 24 h): 2.3% | relative apoptosis (cell line OPM-2 [8]; 30 μM EA, 48 h): 7.5% | relative apoptosis (cell line OPM-2 [8]; 30 μM EA, 72 h): 13.4% | viability at 30 µM (cell line Raji [9]; 24 h): 95.7% | viability at 30 µM (cell line Raji [9]; 48 h): 90.7% | viability at 30 µM (cell line Raji [9]; 72 h): 78.9% | relative apoptosis (cell line Raji [10]; 30 μM EA, 24 h): 2.4% | relative apoptosis (cell line Raji [10]; 30 μM EA, 48 h): 4.8% | relative apoptosis (cell line Raji [10]; 30 μM EA, 72 h): 9.8% | solubility in most organic solvents ([1]; e.g. alcohols, chloroform, and benzene): soluble | solubility in water ([1]; water): slightly soluble

Cc1cc(C2CCCCC2)n(O)c(=O)c1 [cic, Ciclopirox olamine]
viability at 24 h, 10 μM ([2]; 10 μM cic, 24 h): 99.3% | viability at 48 h, 10 μM ([2]; 10 μM cic, 48 h): 98.3% | viability at 72 h, 10 μM ([2]; 10 μM cic, 72 h): 94.4% | relative apoptosis (PBMCs; 10 μM cic, 24 h): 0.4% | relative apoptosis (PBMCs; 10 μM cic, 48 h): 1.4% | relative apoptosis (PBMCs; 10 μM cic, 72 h): 3.3% | relative viability (cell line LAM-53 [3]; 10 μM cic, 48 h): 52.9% | viability at 10 µM (cell line LAM-53 [3]; 24 h, 10 μM cic): 76.2% | viability at 10 µM (cell line LAM-53 [3]; 72 h, 10 μM cic): 32.4% | relative apoptosis (cell line LAM-53 [4]; 10 μM cic, 24 h): 12.2% | relative apoptosis (cell line LAM-53 [4]; 10 μM cic, 48 h): 34.4% | relative apoptosis (cell line LAM-53 [4]; 10 μM cic, 72 h): 51.2% | viability at 10 µM (cell line DHL-4 [5]; 24 h): 93% | viability at 10 µM (cell line DHL-4 [5]; 48 h): 90.3% | viability at 10 µM (cell line DHL-4 [5]; 72 h): 55.9% | relative apoptosis (cell line DHL-4 [6]; 10 μM cic, 24 h): 5.8% | relative apoptosis (cell line DHL-4 [6]; 10 μM cic, 48 h): 5.0% | relative apoptosis (cell line DHL-4 [6]; 10 μM cic, 72 h): 30.8% | viability at 10 µM (cell line OPM-2 [7]; 24 h): 93.6% | viability at 10 µM (cell line OPM-2 [7]; 48 h): 72.5% | viability at 10 µM (cell line OPM-2 [7]; 72 h): 29.4% | relative apoptosis (cell line OPM-2 [8]; 10 μM cic, 24 h): 4.0% | relative apoptosis (cell line OPM-2 [8]; 10 μM cic, 48 h): 15.3% | relative apoptosis (cell line OPM-2 [8]; 10 μM cic, 72 h): 34.8% | viability at 10 µM (cell line Raji [9]; 24 h): 83.8% | viability at 10 µM (cell line Raji [9]; 48 h): 45.6% | viability at 10 µM (cell line Raji [9]; 72 h): 21.7% | relative apoptosis (cell line Raji [10]; 10 μM cic, 24 h): 14.1% | relative apoptosis (cell line Raji [10]; 10 μM cic, 48 h): 31.0% | relative apoptosis (cell line Raji [10]; 10 μM cic, 72 h): 30.0% | maximum concentration in human systemic tolerability studies [11]: 275 µM
